Patent US11191780B2, “Extracellular matrix compositions for the treatment of cancer or immunological diseases” (ADAPTIVE BIOLOGIX, INC., priority 2015, dated 2021)
Where two headings read alike, the source gives them in different places.

Tests used:
C6 cells = experiment: C6 tumor growth in nude mice, subcutaneous co-injection; assay type: in vivo, mouse; conditions: vs no treatment control (FIG. 12)
Description: (§1) Tumor growth of B16 cells, C6 cells, or MDA435 cells in the presence or absence of ECM, and with or without cisplatin, were examined in nude mice. Cells, ECM and Cisplatin were injected simultaneously subcutaneously in the lower haunch of a nude mouse. Tumor growth was followed over time using photography, measurements of length and width, then finally by weight. FIGS. 8 and 9 show the growth of tumors from C6 cells in nude mice in the presence (FIG. 9) and absence (FIG. 8) of ECM on day 14 post-injection. FIGS. 10 and 11 show the growth of tumors from C6 cells in nude mice in the presence of ECM with cisplatin (FIG. 10) and cisplatin without ECM (FIG. 11) of ECM on day 14 post-injection.

MDA435 cells = experiment: MDA435 tumor growth in nude mice, subcutaneous co-injection; assay type: in vivo, mouse
Description: as §1

lung cancer = conditions: cited from earlier work

| Compound | tumor growth over 18 days (C6 cells) | tumor growth over 25 days (MDA435 cells; vs no treatment control (FIG. 14)) | tumor growth (MDA435 cells; vs no treatment control (FIGS. 13A-D)) | ORR (lung cancer; PD-L1+ patients) | ORR (lung cancer; PD-L1 negative patients) | ORR (lung cancer; all the patients with lung cancer) |
| --- | --- | --- | --- | --- | --- | --- |
| N.N.[Cl][Pt][Cl] [cisplatin] | no growth | reduction in tumor mass to zero | reduced or no tumor growth | – | – | – |
| MEDI4736: an engineered fully-human anti-PD-L1 antibody | – | – | – | up to 39% | 5% | 13% |
